{"source": "PubChem BioAssay AID2060627", "about": "(Molecular Pharmacology Branch, DTP, NCI, 2025);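 also: spheroids exposed to the agents for seven days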;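 as to viability, T/C: 100% = DMSO vehicle control viability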", "tested_on": "156681-154-R-J1-PDC complex spheroid viability", "assay": "Anticancer human tumor 156681-154-R-J1-PDC patient-derived melanoma cell line growth inhibition [CLK]", "details": "for IC50: curve of first compound; for viability, T/C: stronger effect = lower value", "description": "A high-throughput screen of multi-cell type tumor spheroids was designed to identify active combinations of […] and targeted small molecules. Complex spheroids include a stromal component modeled by human endothelial cells (HUVEC) and fibroblasts modeled by human mesenchymal stem cells (MSCs). The concentration ranges selected for each drug and investigational agent were based upon clinically achievable concentrations if the clinical Cmax of the agent was known.\nCompounds. The drugs and investigational agents: cirtuvivint (SM08502; NSC835563), CC-671 (NSC850746), vemurafenib (NSC761431), tapotoclax (NSC804041), sotorasib (NSC818433), adagrasib (NSC831453), MRTX-1133 (NSC836407), BAY2416964 (NSC825713), copanlisib (NSC816437), inavolisib (NSC800729), abemaciclib (NSC768073), osimertinib (NSC779217), entinostat (NSC756642), eltanexor (KPT-8602, NSC794443), venetoclax (NSC766270), ceralasertib (NSC777638), bortezomib (NSC756655), olaparib (NSC753686), talazoparib (NSC767125), alisertib (NSC759677), peposertib (NSC802822), gemcitabine (NSC613327), 5-fluorouracil (NSC19893), SN-38 (NSC673596), oxaliplatin (NSC266046), paclitaxel (NSC125973), and doxorubicin (NSC123127), were obtained from the National Cancer Institute (NCI) Developmental Therapeutics Program Chemical Repository. The FDA-approved anticancer drug set is available from the Developmental Therapeutics Program at https://dtp.cancer.gov/organization/dscb/obtaining/available plates.htm. […] The stock solutions were prepared in dimethyl sulfoxide (DMSO, Sigma-Aldrich, St. Louis, MO, cat. D2650), except for the platinum complexes which were prepared in saline (Quality Biological, Gaithersburg, MD, cat. 114-055-101), at 800-fold the tested concentration and stored at -70 degrees C prior to their use. All drugs and investigational agents were tested over a range starting from a high concentration at or near the clinical Cmax and decreasing in half-log increments. If the clinical Cmax for an agent had not been determined, the highest concentration tested was 10 microM.\nCell Culture. All cells were maintained in an incubator at 37 degrees C and 5% CO2 with 95% humidity. The PDC lines were cultured according to standard operating procedures established by the NCI PDMR. Briefly, all PDCs were thawed and cultured in Matrigel-coated flasks prepared with a working solution of 1X Ham's F-12 nutrient mix, without supplementation (Invitrogen, Waltham, MA, cat. 11765054), 100 U/mL penicillin-streptomycin (Invitrogen, cat. 15140122), and 2.5% Matrigel (Corning Inc., Corning, NY, cat. 354248) for the first three passages. The 947758-054-R-J2-PDC line was cultured in 6B/Colon 1A media, which includes advanced DMEM/F-12 (Thermo Fisher Scientific, cat. 12634028), 10 mM HEPES (Thermo Fisher Scientific, cat. 15630080), 1X GlutaMAX supplement (Thermo Fisher Scientific, cat. 35050061), 0.1 mg/mL primocin (InvivoGen, cat. ant-pm-2), 10% defined fetal bovine serum, heat inactivated (HyClone Laboratories Inc., cat. SH30070.03HI), 1.25 mM N-Acetyl-L-cysteine (Sigma-Aldrich, cat. A9165), 10 mM nicotinamide (Sigma-Aldrich, cat. N0636), 1X B-27 supplement (Thermo Fisher Scientific, cat. 17504044), 1X N-2 supplement (Thermo Fisher Scientific, cat. 17502048), and 10 microM Y-27632 dihydrochloride (Tocris Bioscience, cat. 1254). The 876862-298-R-J1-PDC was cultured in 6E media, which includes all 6B/Colon 1A media components plus 50% L-WRN conditioned media (ATCC, cat. CRL-3276), 50 ng/mL recombinant human EGF recombinant protein (hEGF; Thermo Fisher Scientific, cat. PHG0311), 10 ng/mL recombinant human fibroblast growth factor 10 (hGFG-10; PeproTech, cat. 100-26), 1 ng/mL recombinant human fibroblast growth factor 2 (hFGF-2; PeproTech, cat. 100-18B), and 1 µM prostaglandin E2 (PGE2; Tocris, cat. 2296). The 227483-062-R1-J1-PDC line was cultured in Panc media, containing all 6E components except hFGF-2, with the addition of 500 nM SB-431542 (Selleckchem, cat. S1067) and 10 nM gastrin (Tocris, cat. 3006). […]"}
{"smiles": "CCCS(=O)(=O)Nc1ccc(F)c(C(=O)c2c[nH]c3ncc(-c4ccc(Cl)cc4)cc23)c1F", "note": "+ CN1CCN(c2cc(C(=O)Nc3cc4cc(-c5cnn(C)c5)ccc4cn3)ccn2)CC1", "values": [{"measurement": "IC50", "setting": "second compound 0.0316 µM", "value": 6050, "unit": "nM"}, {"measurement": "IC50", "setting": "second compound 0.1 µM", "value": 4960, "unit": "nM"}, {"measurement": "IC50", "setting": "second compound 0.316 µM", "value": "< 31.6", "unit": "nM"}, {"measurement": "IC50", "setting": "second compound 1 µM", "value": "< 31.6", "unit": "nM"}, {"measurement": "IC50", "setting": "second compound 3.16 µM", "value": "< 31.6", "unit": "nM"}, {"measurement": "IC50", "setting": "second compound 10 µM", "value": "< 31.6", "unit": "nM"}, {"measurement": "viability, T/C", "setting": "second compound 0.0316 µM, first compound 0.0316 µM", "value": 95.2, "unit": "%"}, {"measurement": "viability, T/C", "setting": "second compound 0.0316 µM, first compound 0.1 µM", "value": 88.7, "unit": "%"}, {"measurement": "viability, T/C", "setting": "second compound 0.0316 µM, first compound 0.316 µM", "value": 104, "unit": "%"}, {"measurement": "viability, T/C", "setting": "second compound 0.0316 µM, first compound 1 µM", "value": 94.7, "unit": "%"}, {"measurement": "viability, T/C", "setting": "second compound 0.0316 µM, first compound 3.16 µM", "value": 99.7, "unit": "%"}, {"measurement": "viability, T/C", "setting": "second compound 0.0316 µM, first compound 10 µM", "value": 13.9, "unit": "%"}, {"measurement": "viability, T/C", "setting": "second compound 0.1 µM, first compound 0.0316 µM", "value": 88.3, "unit": "%"}, {"measurement": "viability, T/C", "setting": "second compound 0.1 µM, first compound 0.1 µM", "value": 80.8, "unit": "%"}, {"measurement": "viability, T/C", "setting": "second compound 0.1 µM, first compound 0.316 µM", "value": 76.7, "unit": "%"}, {"measurement": "viability, T/C", "setting": "second compound 0.1 µM, first compound 1 µM", "value": 85, "unit": "%"}, {"measurement": "viability, T/C", "setting": "second compound 0.1 µM, first compound 3.16 µM", "value": 74.8, "unit": "%"}, {"measurement": "viability, T/C", "setting": "second compound 0.1 µM, first compound 10 µM", "value": 11.3, "unit": "%"}, {"measurement": "viability, T/C", "setting": "second compound 0.316 µM, first compound 0.0316 µM", "value": 25.4, "unit": "%"}, {"measurement": "viability, T/C", "setting": "second compound 0.316 µM, first compound 0.1 µM", "value": 19.6, "unit": "%"}, {"measurement": "viability, T/C", "setting": "second compound 0.316 µM, first compound 0.316 µM", "value": 28.6, "unit": "%"}, {"measurement": "viability, T/C", "setting": "second compound 0.316 µM, first compound 1 µM", "value": 29.9, "unit": "%"}, {"measurement": "viability, T/C", "setting": "second compound 0.316 µM, first compound 3.16 µM", "value": 24.9, "unit": "%"}, {"measurement": "viability, T/C", "setting": "second compound 0.316 µM, first compound 10 µM", "value": 3.74, "unit": "%"}, {"measurement": "viability, T/C", "setting": "second compound 1 µM, first compound 0.0316 µM", "value": 0.19, "unit": "%"}, {"measurement": "viability, T/C", "setting": "second compound 1 µM, first compound 0.1 µM", "value": 0.44, "unit": "%"}, {"measurement": "viability, T/C", "setting": "second compound 1 µM, first compound 0.316 µM", "value": 0.19, "unit": "%"}, {"measurement": "viability, T/C", "setting": "second compound 1 µM, first compound 1 µM", "value": 0.14, "unit": "%"}, {"measurement": "viability, T/C", "setting": "second compound 1 µM, first compound 3.16 µM", "value": 0.12, "unit": "%"}, {"measurement": "viability, T/C", "setting": "second compound 1 µM, first compound 10 µM", "value": 0.13, "unit": "%"}, {"measurement": "viability, T/C", "setting": "second compound 3.16 µM, first compound 0.0316 µM", "value": 0.3, "unit": "%"}, {"measurement": "viability, T/C", "setting": "second compound 3.16 µM, first compound 0.1 µM", "value": 0.48, "unit": "%"}, {"measurement": "viability, T/C", "setting": "second compound 3.16 µM, first compound 0.316 µM", "value": 0.11, "unit": "%"}, {"measurement": "viability, T/C", "setting": "second compound 3.16 µM, first compound 1 µM", "value": 0.27, "unit": "%"}, {"measurement": "viability, T/C", "setting": "second compound 3.16 µM, first compound 3.16 µM", "value": 3.96, "unit": "%"}, {"measurement": "viability, T/C", "setting": "second compound 3.16 µM, first compound 10 µM", "value": 0.11, "unit": "%"}, {"measurement": "viability, T/C", "setting": "second compound 10 µM, first compound 0.0316 µM", "value": 0.13, "unit": "%"}, {"measurement": "viability, T/C", "setting": "second compound 10 µM, first compound 0.1 µM", "value": 1.59, "unit": "%"}, {"measurement": "viability, T/C", "setting": "second compound 10 µM, first compound 0.316 µM", "value": 0.27, "unit": "%"}, {"measurement": "viability, T/C", "setting": "second compound 10 µM, first compound 1 µM", "value": 0.21, "unit": "%"}, {"measurement": "viability, T/C", "setting": "second compound 10 µM, first compound 3.16 µM", "value": 3.86, "unit": "%"}, {"measurement": "viability, T/C", "setting": "second compound 10 µM, first compound 10 µM", "value": 0.17, "unit": "%"}]}
